CC(=O)c1ccc2ccccc2c1O
Conditions | solubility (mole fraction)
in cyclohexane, 292.4 K | 0.0076
in cyclohexane, 296.55 K | 0.0092
in cyclohexane, 300.65 K | 0.0114
in cyclohexane, 304.9 K | 0.014
in cyclohexane, 308.6 K | 0.0173
in cyclohexane, 313.55 K | 0.0222
in cyclohexane, 318.5 K | 0.0285
in cyclohexane, 324.75 K | 0.0382
in cyclohexane, 329.65 K | 0.0511
in cyclohexane, 333.95 K | 0.0679
in cyclohexane, 337.6 K | 0.0872
in cyclohexane, 340.65 K | 0.109
in ethanol, 289.15 K | 0.0049
in ethanol, 292.6 K | 0.0055
in ethanol, 296.25 K | 0.0064
in ethanol, 299.95 K | 0.0075
in ethanol, 304.55 K | 0.0089
in ethanol, 307.95 K | 0.0104
in ethanol, 310.55 K | 0.0117
in ethanol, 312.9 K | 0.013
in ethanol, 316.4 K | 0.015
in ethanol, 319.6 K | 0.0174
in ethanol, 323.4 K | 0.0207
in ethanol, 327.35 K | 0.025
in ethanol, 331.2 K | 0.0313
in ethanol, 334.95 K | 0.0399
in ethanol, 338.65 K | 0.052
in ethanol, 342.25 K | 0.0696
in n-butanol, 280.85 K | 0.0054
in n-butanol, 285.65 K | 0.0065
in n-butanol, 291.55 K | 0.0084
in n-butanol, 295.65 K | 0.0101
in n-butanol, 299.45 K | 0.012
in n-butanol, 303.75 K | 0.0144
in n-butanol, 308.25 K | 0.0179
in n-butanol, 312.75 K | 0.0219
in n-butanol, 318.65 K | 0.0291
in n-butanol, 325.85 K | 0.0431
in n-butanol, 328.95 K | 0.0523
in n-butanol, 332.65 K | 0.0648
in n-butanol, 335.75 K | 0.0788
in n-butanol, 336.45 K | 0.0831
in n-heptane, 290.65 K | 0.008
in n-heptane, 295.25 K | 0.0099
in n-heptane, 299.9 K | 0.0123
in n-heptane, 304.65 K | 0.0153
in n-heptane, 310.15 K | 0.019
in n-heptane, 315.4 K | 0.0239
in n-heptane, 321.65 K | 0.0306
in n-heptane, 327.2 K | 0.0395
in n-heptane, 332.65 K | 0.05
in n-heptane, 338.55 K | 0.0627
in n-heptane, 344.35 K | 0.0898
in n-heptane, 348.35 K | 0.116
in n-hexane, 281.65 K | 0.0045
in n-hexane, 286.55 K | 0.0056
in n-hexane, 289.75 K | 0.0065
in n-hexane, 293.45 K | 0.0077
in n-hexane, 297.35 K | 0.0091
in n-hexane, 301.95 K | 0.0107
in n-hexane, 305.45 K | 0.0129
in n-hexane, 309.95 K | 0.0156
in n-hexane, 314.25 K | 0.0189
in n-hexane, 319.55 K | 0.0236
in n-hexane, 324.05 K | 0.0288

CC(=O)c1c(O)ccc2ccccc12
Conditions | solubility (mole fraction)
in cyclohexane, 292.9 K | 0.0181
in cyclohexane, 296.6 K | 0.0229
in cyclohexane, 300.7 K | 0.0292
in cyclohexane, 304.8 K | 0.0379
in cyclohexane, 308.85 K | 0.0505
in cyclohexane, 312.6 K | 0.068
in cyclohexane, 316.25 K | 0.0957
in cyclohexane, 318.95 K | 0.132
in cyclohexane, 320.35 K | 0.162
in cyclohexane, 321.85 K | 0.19
in ethanol, 285.7 K | 0.0615
in ethanol, 288.9 K | 0.0712
in ethanol, 293.05 K | 0.0859
in ethanol, 297 K | 0.104
in ethanol, 301.15 K | 0.135
in ethanol, 304.55 K | 0.168
in ethanol, 310.05 K | 0.234
in ethanol, 314.65 K | 0.321
in n-butanol, 282.55 K | 0.0555
in n-butanol, 288.55 K | 0.0724
in n-butanol, 293.35 K | 0.0897
in n-butanol, 299 K | 0.117
in n-butanol, 303.95 K | 0.155
in n-butanol, 307.95 K | 0.201
in n-butanol, 311.75 K | 0.257
in n-butanol, 314.95 K | 0.328
in n-butanol, 317.35 K | 0.389
in n-butanol, 318.15 K | 0.408
in n-heptane, 288.75 K | 0.0133
in n-heptane, 293.15 K | 0.0163
in n-heptane, 296.95 K | 0.0198
in n-heptane, 301.8 K | 0.0239
in n-heptane, 302.4 K | 0.0245
in n-heptane, 306.55 K | 0.0305
in n-heptane, 312.05 K | 0.0404
in n-heptane, 317.15 K | 0.056
in n-heptane, 322.05 K | 0.079
in n-heptane, 326.05 K | 0.115
in n-heptane, 328.45 K | 0.166
in n-heptane, 329.25 K | 0.214
in n-hexane, 283.75 K | 0.0082
in n-hexane, 289.25 K | 0.0107
in n-hexane, 295.55 K | 0.0141
in n-hexane, 299.25 K | 0.0175
in n-hexane, 305.2 K | 0.0242
in n-hexane, 310.6 K | 0.032
in n-hexane, 311.45 K | 0.0339
in n-hexane, 314.8 K | 0.0414
in n-hexane, 319.05 K | 0.0529
in n-hexane, 323.45 K | 0.0716

Reference: BigSolDB 2.1
